# Assay results as given in patent US20250340551A1, “SMALL MOLECULE MODULATORS OF STAT6” (Gilead Sciences, Inc., priority 2024, published 2025).
# Target: human STAT6 (Homo sapiens (Human), UniProt P42226)
# Experiment: Surface plasmon resonance assay (Biacore 8K, binding to immobilized STAT6)
# Conditions: human STAT6 aa122-658, N-terminal His-tag, CM5 chip, 25° C.; geometric mean; read-out: STAT6 SPR Kd
# How it was run: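 Run at 25° C with His-tagged STAT6 aa122-658 (insect-cell expressed) amine-coupled to a CM5 chip, reference-subtracted, in PBS-P+ with 2% DMSO. Multi-cycle kinetics: 60 sec. contact, up to 300 sec. dissociation. Affinity fitted from late report-point binding isotherms, with Rmax both free and fixed to theoretical 1:1.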
# Sequence of human STAT6 (P42226 122-658): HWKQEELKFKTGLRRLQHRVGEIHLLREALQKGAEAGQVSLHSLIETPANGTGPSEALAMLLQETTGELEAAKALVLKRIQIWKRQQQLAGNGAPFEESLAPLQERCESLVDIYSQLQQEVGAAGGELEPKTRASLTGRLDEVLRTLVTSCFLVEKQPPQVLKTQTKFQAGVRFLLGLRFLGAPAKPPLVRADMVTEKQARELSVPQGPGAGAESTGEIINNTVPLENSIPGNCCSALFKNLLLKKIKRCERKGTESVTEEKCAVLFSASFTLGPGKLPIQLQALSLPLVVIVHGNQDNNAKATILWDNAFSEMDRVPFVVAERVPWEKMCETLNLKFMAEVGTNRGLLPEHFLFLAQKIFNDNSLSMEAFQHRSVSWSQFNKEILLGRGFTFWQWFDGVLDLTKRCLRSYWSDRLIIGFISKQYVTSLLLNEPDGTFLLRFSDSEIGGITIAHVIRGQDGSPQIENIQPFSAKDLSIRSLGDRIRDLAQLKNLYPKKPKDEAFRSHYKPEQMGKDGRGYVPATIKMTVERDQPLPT
row,Structure (SMILES),Kd [nM]
1,"CNc1ccc(-c2ccnc3c2cc(CN2CCN(c4ccc(C(=O)N(C)C)cn4)CC2)n3C)nc1 [Example 1n9, N,N-Dimethyl-6-[4-[[1-methyl-4-[5-(methylamino)-2-pyridyl]pyrrolo[2,3-b]pyridin-2-yl]methyl]piperazin-1-yl]pyridine-3-carboxamide]",8920
2,"CN(C)C(=O)c1ccc(C2CCN(Cc3cc4c(-c5ccc(NCCO)nc5)ccnc4n3C)CC2)cc1 [Example 1k61, 4-[1-[[4-[6-(2-Hydroxyethylamino)-3-pyridyl]-1-methyl-pyrrolo[2,3-b]pyridin-2-yl]methyl]-4-piperidyl]-N,N-dimethyl-benzamide]",16.5
3,"CNc1ccc(-c2ccnc3c2cc(CN2CCC(c4ccc(C(=O)N(C)C)cc4)CC2)n3C(C)C)cn1 [Example 1ad3, 4-[1-[[1-iso-Propyl-4-[6-(methylamino)-3-pyridyl]pyrrolo[2,3-b]pyridin-2-yl]methyl]-4-piperidyl]-N,N-dimethyl-benzamide]",2730
4,"CN(C)C(=O)c1ccc(C2CCN(Cc3cc4c(-c5cnc(N)nc5C#N)ccnc4n3C)CC2)cc1 [Example 1k41, 4-[1-[[4-(2-Amino-4-cyano-pyrimidin-5-yl)-1-methyl-pyrrolo[2,3-b]pyridin-2-yl]methyl]-4-piperidyl]-N,N-dimethyl-benzamide]",188
5,"CC(=O)Nc1ccc(-c2ccnc3c2cc(CN2CC[C@H](c4ccc(C(=O)N(C)C)cc4)[C@H](F)C2)n3C)cc1 [Example 1r5, N,N-Dimethyl-4-[(3S,4R)-1-[[4-(4-acetamidophenyl)-1-methyl-pyrrolo[2,3-b]pyridin-2-yl]methyl]-3-fluoro-4-piperidyl]benzamide]",110
6,"CN(C)C(=O)c1ccc(C2CCN(Cc3cc4c(-c5ccc(NCC(=O)O)nc5)ccnc4n3C)CC2)cc1 [Example 1k63, 2-[[5-[2-[[4-[4-(Dimethylcarbamoyl)phenyl]-1-piperidyl]methyl]-1-methyl-pyrrolo[2,3-b]pyridin-4-yl]-2-pyridyl]amino]acetic acid]",16.3
7,"CNc1ccc(-c2ccnc3c2cc(CN2CCC(c4ccc(C(=O)N(C)C)cn4)CC2)n3C)nn1 [Example 1p5, N,N-Dimethyl-6-[1-[[1-methyl-4-[6-(methylamino)pyridazin-3-yl]pyrrolo[2,3-b]pyridin-2-yl]methyl]-4-piperidyl]pyridine-3-carboxamide]",148

# Test system: Eotaxin-3 (CCL26) release in human whole blood stimulated with IL-4
# Experiment: Human whole blood eotaxin-3 assay (IL-4 stimulated, Eotaxin-3 release)
# Assay type: cell-based
# Conditions: Homo sapiens, 48 h
# Method: This was a human whole blood assay using recombinant human Interleukin 4 to stimulate the blood and measuring the ability of the test compounds to inhibit eotaxin-3 release. The biological activities of the test compounds have been tested in human whole blood stimulated with IL-4 measuring Eotaxin-3 release. The test compounds were added to 384 well clear flat-bottom plate in a 4-fold serial dilution in triplicates using a liquid handler. Human whole blood stabilized in lithium-heparin tubes was added in a volume of 65 μL per well, resulting in a final DMSO concentration of 0.5%. The plate is incubated for 2 h at 37° C. under 5% CO2/95% air. Subsequently, 5 μL of recombinant human IL-4 (R&D Systems, cat #204-ILB) was added to the wells to a final concentration of 400 pM. The plate was incubated for 48 h at 37° C. under 5% CO2/95% air. The plate was spun down for 10 minutes at 500×g and 20 μL supernatant was harvested and transferred to a 384 well v-bottom plate using a liquid handler and stored at −20° C. until further analysis. 10 μL supernatant was used to measure the level of Eotaxin-3 (CCL26) using Human Eotaxin-3 MSD kit from Mesocsale (Cat #K251UEK-4). The assay was performed according to the manufacture instructions.
# The data from the human whole blood eotaxin-3 assay is shown below for Examples 1u2, 1x1, 1af26, and 1af36 (where the effect in % is plotted against the test concentration in M on a log-scale).
row,Structure (SMILES),Emax [%]
1,"[2H]C([2H])([2H])N(C(=O)c1cnc(C2=CCN(Cc3cc4c(-c5ccc(N)nc5C#N)ccnc4n3C)CC2)nc1)C([2H])([2H])[2H] [Example 1z15, 2-(1-((4-(6-amino-2-cyanopyridin-3-yl)-1-methyl-1H-pyrrolo[2,3-b]pyridin-2-yl)methyl)-1,2,3,6-tetrahydropyridin-4-yl)-N,N-bis(methyl-d3)pyrimidine-5-carboxamide]",< 20
2,"[2H]C([2H])([2H])N(C(=O)c1ccc(C2CCN([C@@H](C)c3cc4c(-c5cnc(N)cc5C#N)ccnc4n3C)CC2)cc1)C([2H])([2H])[2H] [Example 1af70, (S)-4-(1-(1-(4-(6-amino-4-cyanopyridin-3-yl)-1-methyl-1H-pyrrolo[2,3-b]pyridin-2-yl)ethyl)piperidin-4-yl)-N,N-bis(methyl-d3)benzamide]",30 to 40
3,"CN(C)C(=O)c1ccc(C2=CCN(Cc3cc4c(-c5ccc(N)nc5)ccnc4n3C)CC2)cc1F [Example 1z7, 4-(1-((4-(6-aminopyridin-3-yl)-1-methyl-1H-pyrrolo[2,3-b]pyridin-2-yl)methyl)-1,2,3,6-tetrahydropyridin-4-yl)-2-fluoro-N,N-dimethylbenzamide]",20 to 30

# Same assay, conditions: Homo sapiens, Hec50, 48 h
row,Structure (SMILES),EC50 [nM]
1,"[2H]C([2H])([2H])N(C(=O)c1cc(C)c(C2=CCN(Cc3cc4c(-c5ccc(N)nn5)ccnc4n3C)CC2)c(F)c1)C([2H])([2H])[2H] [Example 1z20, 4-(1-((4-(6-aminopyridazin-3-yl)-1-methyl-1H-pyrrolo[2,3-b]pyridin-2-yl)methyl)-1,2,3,6-tetrahydropyridin-4-yl)-3-fluoro-5-methyl-N,N-bis(methyl-d3)benzamide]",53.3
2,"[2H]C([2H])([2H])N(C(=O)c1ccc(C2CCN([C@H](C)c3cc4c(-c5ccc(N)cn5)ccnc4n3C)CC2)c(C)c1)C([2H])([2H])[2H] [Example 1af42, (R)-4-(1-(1-(4-(5-amino-pyridin-2-yl)-1-methyl-1H-pyrrolo[2,3-b]pyridin-2-yl)ethyl)piperidin-4-yl)-3-methyl-N,N-bis(methyl-d3)benzamide]",1400
3,"CNc1ccc(-c2ccnc3c2cc(C(C)N2CC=C(c4c(C)cc(C(=O)N(C)C)cc4F)CC2)n3C)cn1 (centres unmarked) [Example 1z36, 3-fluoro-N,N,5-trimethyl-4-(1-(1-(1-methyl-4-(6-(methylamino)pyridin-3-yl)-1H-pyrrolo[2,3-b]pyridin-2-yl)ethyl)-1,2,3,6-tetrahydropyridin-4-yl)benzamide]",38.6
4,"Cc1cc(C(=O)N(C)C)cc(F)c1C1=CCN([C@H](C)c2cc3c(-c4ccc(N)nc4)ccnc3n2C)CC1 [Example 1z30, (R)-4-(1-(1-(4-(6-aminopyridin-3-yl)-1-methyl-1H-pyrrolo[2,3-b]pyridin-2-yl)ethyl)-1,2,3,6-tetrahydropyridin-4-yl)-3-fluoro-N,N,5-trimethylbenzamide]",10.2
5,"[2H]C([2H])([2H])N(C(=O)c1ccc(C2=CCN([C@@H](C)c3cc4c(-c5ccc(N)nn5)ccnc4n3C)CC2)cc1)C([2H])([2H])[2H] [Example 1af59, (S)-4-(1-(1-(4-(6-aminopyridazin-3-yl)-1-methyl-1H-pyrrolo[2,3-b]pyridin-2-yl)ethyl)-1,2,3,6-tetrahydropyridin-4-yl)-N,N-bis(methyl-d3)benzamide]",260
6,"CN(C)C(=O)c1ccc(C2=CCN(Cc3cc4c(-c5ccc(N)nc5)ccnc4n3C)CC2)c(C#N)c1 [Example 1z10, 4-(1-((4-(6-aminopyridin-3-yl)-1-methyl-1H-pyrrolo[2,3-b]pyridin-2-yl)methyl)-1,2,3,6-tetrahydropyridin-4-yl)-3-cyano-N,N-dimethylbenzamide]",473
7,"CN(C)C(=O)c1cc(F)c(C2=CCN(Cc3cc4c(-c5ccc(N)nc5)ccnc4n3C)CC2)c(F)c1 [Example 1z16, 4-(1-((4-(6-aminopyridin-3-yl)-1-methyl-1H-pyrrolo[2,3-b]pyridin-2-yl)methyl)-1,2,3,6-tetrahydropyridin-4-yl)-3,5-difluoro-N,N-dimethylbenzamide]",335
8,"CN(C)C(=O)c1cc(F)c(C2=CCN(Cc3cc4c(-c5ccc(N)nc5)ccnc4n3C)CC2)c(C2CC2)c1 [Example 1z35, 4-(1-((4-(6-aminopyridin-3-yl)-1-methyl-1H-pyrrolo[2,3-b]pyridin-2-yl)methyl)-1,2,3,6-tetrahydropyridin-4-yl)-3-cyclopropyl-5-fluoro-N,N-dimethylbenzamide]",81.8
9,"CNc1ccc(-c2ccnc3c2cc([C@H](C)N2CC=C(c4c(C)cc(C(=O)N(C)C)cc4F)CC2)n3C)nc1 [Example 1z40, (S)-3-fluoro-N,N,5-trimethyl-4-(1-(1-(1-methyl-4-(5-(methylamino)pyridin-2-yl)-1H-pyrrolo[2,3-b]pyridin-2-yl)ethyl)-1,2,3,6-tetrahydropyridin-4-yl)benzamide]",3290
10,"CN(C)C(=O)c1cc(F)c(C2=CCN(Cc3cc4c(-c5ccc(N)cn5)ccnc4n3C)CC2)c(F)c1 [Example 1z17, 4-(1-((4-(5-aminopyridin-2-yl)-1-methyl-1H-pyrrolo[2,3-b]pyridin-2-yl)methyl)-1,2,3,6-tetrahydropyridin-4-yl)-3,5-difluoro-N,N-dimethylbenzamide]",368
11,"Cc1cc(C(=O)N(C)C)ccc1C1=CCN(Cc2cc3c(-c4ccc(N)nn4)ccnc3n2C)CC1 [Example 1af76, 4-(1-((4-(6-Aminopyridazin-3-yl)-1-methyl-1H-pyrrolo[2,3-b]pyridin-2-yl)methyl)-1,2,3,6-tetrahydropyridin-4-yl)-N,N,3-trimethylbenzamide]",308
12,"[2H]C([2H])([2H])N(C(=O)c1ccc(C2=CCN([C@@H](C)c3cc4c(-c5ncc(N)cc5F)ccnc4n3C)CC2)cc1)C([2H])([2H])[2H] [Example 1af51, (S)-4-(1-(1-(4-(5-Amino-3-fluoropyridin-2-yl)-1-methyl-1H-pyrrolo[2,3-b]pyridin-2-yl)ethyl)-1,2,3,6-tetrahydropyridin-4-yl)-N,N-bis(methyl-d3)benzamide]",1670
13,"Cc1cc(C(=O)N(C)C)cc(F)c1C1=CCN(Cc2cc3c(-c4ccc(N)nn4)ccnc3n2C)CC1 [Example 1z14, 4-(1-((4-(6-aminopyridazin-3-yl)-1-methyl-1H-pyrrolo[2,3-b]pyridin-2-yl)methyl)-1,2,3,6-tetrahydropyridin-4-yl)-3-fluoro-N,N,5-trimethylbenzamide]",37.8
